Values quoted from earlier work in patent US6517814B2, “Macrocyclic chelants useful for metallopharmaceuticals” (Bristol-Myers Squibb Pharma Company, priority 2001, dated 2003).
Where two headings read alike, the source gives them in different places.

For `O=C([O-])CN1CCN(CC(=O)[O-])CCN(CC(=O)[O-])CCN(CC(=O)[O-])CC1.[Gd+3]` [[Gd(DOTA]^−], the half-life (in 0.1 M HCl) is listed as 60.2 h.

In the case of `O=C([O-])CN(CCN(CC(=O)[O-])CC(=O)[O-])CCN(CC(=O)[O-])CC(=O)[O-].[Gd+3]` [[Gd(DTPA]^2−], the half-life (decomposes rapidly under acidic conditions) is given as ~0.0167 h.
